# How the values were obtained:
# HepG2 cells = test: Measurement of intracellular fatty acid synthesis inhibition activity (FA biosynthesis from [14C]-glucose); format: cell-based; conditions: Homo sapiens, 3.0 × 10^−5 M compound, 3 hours culture with [14C]-glucose
# Experimental: Measurement of Intracellular Fatty Acid Synthesis Inhibition Activity (FA Biosynthesis Inhibition Activity)
# Each of the compounds produced in the Examples was dissolved in DMSO and added to an experimental culture medium (DMEM; 0.05 μg/ml insulin, 0.1 mg/ml glucose and 18.5 kBq/ml [^14C]-glucose). The HepG2 cells were adjusted to a density of 0.75×10^6 cells/ml, inoculated into a 12 well plate in an amount of 1 ml/well and cultured overnight at 37° C. in an atmosphere of 5% CO2 (culture medium: DMEM, […] and 10% FBS), and the resulting cells were washed twice with PBS(−) buffer, mixed with the experimental culture medium in an amount of 0.5 ml/well and then cultured at 37° C. for 3 hours in an atmosphere of 5% CO2. After the culturing, the cells were washed twice with ice-cooled PBS(−) buffer and peeled off, and lipids were extracted from the resulting cells with a lipid extraction solution (chloroform:methanol=2:1). The extract was mixed with 2.5 ml of ethanol and 0.1 ml of 33% potassium hydroxide and incubated at 70° C. for 1 hour. Lipids were again extracted from the reaction mixture, and the extract was applied to a silica gel thin layer plate. This was developed with a developing solution (hexane:diethyl ether:acetic acid=80:20:1) and then the fatty acid iodine-coloring part was collected to measure its radioactivity using a liquid scintillation counter. The inhibition activity % (3.0×10^−5 M) of each compound was calculated.
# [1] = target: T1, acetyl-CoA carboxylase (ACC) (Rattus norvegicus, UniProt P11497); test: Measurement of ACC inhibition activity (14C-bicarbonate incorporation, ACC purified from rat liver); format: biochemical; conditions: 5.6 × 10^−6 M compound; ACC purified from SD rat liver
# T1 construct: subjected to decapitation and bloodletting under ether anesthesia to quickly take out the liver; from tissue; host or cells: rat liver (male SD rat, fasted then fed a high-sucrose feed)
# Experimental: After 2 days of fasting, a male SD rat of 12 weeks of age was allowed to feed on a high sucrose feed (67% sucrose, 17.1% casein, 9.8% cellulose, 5% sodium chloride, 0.1% choline chloride and 1% vitamins) for 2 days and then subjected to decapitation and bloodletting under ether anesthesia to quickly take out the liver. The thus obtained liver was sliced in an ice-cooled buffer A (225 mM mannitol, 75 mM sucrose, 10 mM Tris/HCl (pH 7.5), 0.05 mM EDTA-2Na, 5 mM potassium citrate, 2.5 mM MnCl2, 10 mg/l aprotinin, 10 mg/l leupeptin and 10 mg/l antitrypsin) and then, after removal of moisture, adjusted to 5 ml/g by adding the buffer A and homogenized for 4 minutes using Polytron homogenizer. This was centrifuged for 10 minutes at 1,000 g and then the resulting supernatant was subjected to 10 minutes of high speed centrifugation at 17,000 g.
# Ammonium sulfate was added to the thus obtained supernatant to a final concentration of 35%, and the mixture was stirred for 45 minutes and then subjected to 10 minutes of high speed centrifugation at 17,000 g. The thus obtained precipitate was mixed with 100 ml of a buffer B (100 mM Tris/HCl (pH 7.5), 0.5 M NaCl, 1 mM EDTA-2Na, 0.1 mM DTT, 10% glycerol, 10 mg/l aprotinin, 10 mg/l leupeptin and 10 mg/l antitrypsin) and subjected to 20 minutes of ultracentrifugation at 40,000, and the resulting supernatant was dialyzed overnight against 150 volumes of a buffer C (100 mM Tris/HCl (pH 7.5), 0.5 M NaCl, 1 mM EDTA-2Na, 0.1 mM DTT and 10% glycerol) and then filtered through a 5 μm filter. The filtrate was applied to a biotin affinity column, washed with the buffer B and then eluted with the buffer B supplemented with 5 mM biotin.
# 2. Measurement of ACC Inhibition Activity
# Each of the compounds produced in the Examples was dissolved in DMSO, and the solution was put into a glass vial, mixed with 250 μl of an ACC-containing reagent 1 (40 mM Tris/HCl (pH 7.5), 40 mM MgCl2, 40 mM sodium citrate, 2 mM DTT and 100 μg/ml fatty acid-free BSA),incubated at 37° C. for 30 minutes in a thermostatic chamber, cooled with ice, mixed with 250 μl of a reagent 2 (40 mM Tris/HCl (pH 7.5), 2 mM DTT, 8 mM ATP and 0.5 mM acetyl-CoA) containing 74 kBq of NaH^14CO3, again incubated at 37° C. for 10 minutes in a thermostatic chamber and then mixed with 0.1 ml of 1 N HCl to terminate the reaction. After complete removal of moisture in the glass vial under a reduced pressure, an emulsified scintillator (Cleasol I) was added to the glass vial, and the ^14C radioactivity was measured using a liquid scintillation counter. […]
# Inhibition activity ratio (%)=(1−radioactivity when a drug to be tested is added/radioactivity when the drug to be rested is not added)×100
Structure (SMILES),melting point [°C],inhibition at 5.6 µM [1] [%],inhibition at 30 µM (HepG2 cells) [%]
"COc1ccc(C(=O)NS(=O)(=O)c2ccccc2NC(=O)c2cccc(OCc3ccccc3)c2)cc1 [Example 6, N-[2-(3-Benzyloxybenzamido)benzenesulfonyl]-4-methoxybenzamide]",189 to 190,–,–
"CC(C)(C)C(=O)NS(=O)(=O)c1ccccc1NC(=O)c1ccc(C#Cc2ccccc2)cc1 [Example 41, N-[2-(4-Phenylethynylbenzamido)benzenesulfonyl]pivalamide]",236 to 237,–,–
"CCCCCCCCCC(=O)NS(=O)(=O)c1ccccc1NC(=O)c1cccc(OCCCCCCC)c1 [Example 37, N-[2-(3-Heptyloxybenzamido]benzenesulfonyl]decanamide]",172 to 174,83.6,64.3
"CC(=O)NS(=O)(=O)c1ccccc1NC(=O)c1cccc(OCc2ccc(C(F)(F)F)cc2)c1 [Example 32, N-[2-[3-(4-Trifluoromethylbenzyloxy)benzamido]benzenesulfonyl]acetamide]",164 to 165,–,–
"CCCCCCCCCC(=O)NS(=O)(=O)c1ccccc1NC(=O)c1cccc(OCc2ccc([N+](=O)[O-])cc2)c1 [Example 22, N-[2-[3-(4-Nitrobenzyloxy)benzamido]benzenesulfonyl]decananide]",145 to 148,88.4,95.2
"CCCCCC(=O)NS(=O)(=O)c1ccccc1NC(=O)c1cccc(OCc2ccc(Cl)cc2)c1 [Example 18, N-[2-[3-(4-Chlorobenzyloxy)benzamido]benzenesulfonyl]hexanamide]",148 to 149,–,–
"CCCCCC(=O)NS(=O)(=O)c1ccccc1NC(=O)c1cccc(OCc2ccc(C(F)(F)F)cc2)c1 [Example 33, N-[2-[3-(4-Trifluoromethylbenzyloxy)benzamido]benzenesulfonyl]hexanamide]",142 to 143,52.3,97.5
"CCCCCC(=O)NS(=O)(=O)c1ccccc1NC(=O)c1cccc(OCc2ccc(OC)cc2)c1 [Example 24, N-[2-[3-(4-Methoxybenzyloxy)benzamido]benzenesulfonyl]hexanamide]",154 to 157,–,–
"CCCCCCCCCC(=O)NS(=O)(=O)c1ccccc1NC(=O)c1cccc(OCC2CCCCC2)c1 [Example 28, N-[2-(3-Cyclohexylmethoxybenzamido)benzenesulfonyl]decanamide]",124 to 127,89.4,84.6
CCCCNC(=O)NS(=O)(=O)c1ccccc1NC(=O)c1cccc(OCc2ccccc2)c1,177 to 178,–,–
O=C(NS(=O)(=O)c1ccccc1NC(=O)c1cccc(OCc2ccccc2)c1)Oc1ccccc1,163 to 164,–,–
"CCCCCC(=O)NS(=O)(=O)c1ccccc1NC(=O)c1cccc(OCc2ccccc2)c1 [Example 8, N-[2-(3-Benzyloxybenzamido)benzenesulfonyl]-n-hexanamide]",133 to 134,–,–
"CC(C)=CC(=O)NS(=O)(=O)c1ccccc1NC(=O)c1ccc(C#Cc2ccccc2)cc1 [Example 42, 3-Methyl-N-[2-(4-phenylethynylbenzamido)benzenesulfonyl]-2-butenamide]",187 to 188,–,–
CCCCCCCCNC(=O)NS(=O)(=O)c1ccccc1NC(=O)c1cccc(OCc2ccccc2)c1,124 to 125,–,–
"O=C(Nc1ccccc1S(=O)(=O)NC(=O)c1ccc(C(F)(F)F)cc1)c1cccc(OCc2ccccc2)c1 [Example 4, N-[2-(3-Benzyloxybenzamido)benzenesulfonyl]-4-trifluoromethylbenzamide]",220 to 221,–,–

# The next lines start with results.
melting point [°C],inhibition at 5.6 µM [1] [%],Structure (SMILES),inhibition at 30 µM (HepG2 cells) [%]
195 to 196,–,"CC(=O)NS(=O)(=O)c1ccccc1NC(=O)c1cccc(OCc2ccccc2)c1 [Example 3, N-[2-(3-Benzyloxybenzamido)benzenesulfonyl]acetamide]",–
193 to 194,–,"CC(C)(C)C(=O)NS(=O)(=O)c1ccccc1NC(=O)c1cccc(OCc2ccc(C(C)(C)C)cc2)c1 [Example 12, N-[2-[3-(4-t-Butylbenzyloxy)benzamido]benzenesulfonyl]pivalamide]",–
114 to 117,–,"COc1ccc(COc2cccc(C(=O)Nc3ccccc3S(=O)(=O)NC(C)=O)c2)cc1 [Example 23, N-[2-[3-(4-methoxybenzyloxy)benzamido]benzenesulfonyl]acetamide]",–
112 to 113,–,"CCCCCC(=O)NS(=O)(=O)c1ccccc1NC(=O)c1cccc(OCC2CCCCC2)c1 [Example 27, N-[2-(3-Cyclohexylmethoxybenzamido)benzenesulfonyl]hexanamide]",–
200 to 201,–,"CCCCCCCOc1cccc(C(=O)Nc2ccccc2S(=O)(=O)NC(=O)CCCCC)c1 [Example 36, N-[2-(3-Heptyloxybenzamido)benzenesulfonyl]hexanamide]",–
201 to 202,60.7,"O=C(Nc1ccccc1S(=O)(=O)NC(=O)c1ccccc1)c1cccc(OCc2ccccc2)c1 [Example 2, N-[2-(3-Benzyloxybenzamido)benzenesulfonyl]benzamide]",43.8
233 to 234,–,"O=C(Nc1ccccc1S(=O)(=O)NC(=O)c1ccc([N+](=O)[O-])cc1)c1cccc(OCc2ccccc2)c1 [Example 5, N-[2-(3-Benzyloxybenzamido)benzenesulfonyl]-4-nitrobenzamide]",–
194 to 195,–,"CCCCCCCOc1cccc(C(=O)Nc2ccccc2S(=O)(=O)NC(C)=O)c1 [Example 35, N-[2-(3-Heptyloxybenzamido)benzenesulfonyl]acetamide]",–
214 to 215,–,"CC(=O)NS(=O)(=O)c1ccccc1NC(=O)c1ccc(C#Cc2ccccc2)cc1 [Example 38, N-[2-(4-Phenylethynylbenzamido)benzenesulfonyl]acetamide]",–
208 to 209,–,"O=C(Nc1ccccc1S(=O)(=O)NC(=O)c1ccc(F)cc1F)c1cccc(OCc2ccccc2)c1 [Example 11, N-[2-(3-Benzyloxybenzamido)benzenesulfonyl]-2,4-difluorobenzamide]",–
138 to 141,–,"CCCCCC(=O)NS(=O)(=O)c1ccccc1NC(=O)c1cccc(OCc2ccc([N+](=O)[O-])cc2)c1 [Example 21, N-[2-[3-(4-Nitrobenzyloxy)benzamido]benzenesulfonyl]hexanamide]",–
172 to 173,–,"O=C(Nc1ccccc1S(=O)(=O)NC(=O)c1cccc(OCc2ccccc2)c1)c1cccc(OCc2ccccc2)c1 [Example 1, N-[2-(3-Benzyloxybenzamido)benzenesulfonyl]-3-benzyloxybenzamide]",–
–,84.8,"CCCCC/C=C\C/C=C\CCCCCCCC(=O)NS(=O)(=O)c1ccccc1NC(=O)c1cccc(OCc2ccccc2)c1 [Example 15, N-[2-(3-Benzyloxybenzamido)benzenesulfonyl]linolamide]",30.6
190 to 191,–,"CC(=O)NS(=O)(=O)c1ccccc1NC(=O)c1cccc(OCc2ccc(C(C)(C)C)cc2)c1 [Example 29, N-[2-[3-(4-t-Butylbenzyloxy)benzamido]benzenesulfonyl]acetamide]",–

# From US20030162818A1, “Acylsulfonamide derivative” (AJINOMOTO CO. INC., priority 1997, published 2003)
